# Test results from patent publication US20080166323A1, “Activators of Hexosamine Biosynthesis as Inhibitors of Injury Induced by Ischemia or Hermorrhagic Shock” (UAB RESEARCH FOUNDATION, priority 2004, published 2008).
# Structures can show the parent of a compound that is named as a salt.
# How the values were obtained:
# isolated rat heart = details: administered prior to ischemia or just prior to reperfusion; cited from earlier work
# isolated cardiomyocyte = details: cited from earlier work
# perfused hearts = assay: calcium paradox in perfused hearts (Langendorff); parameters: species or system rat
# Description: The effect of short-term hyperglycemia (2-5 days) on the calcium paradox was explored. The protocol (a 30-minute stabilization after hanging the heart on a Langendorff apparatus, a Ca^2+-free buffer for 10 min, a buffer containing 1.25 mM Ca^2+ buffer for 15 min) was initially applied to perfused hearts from control rats. When calcium was removed from the perfusate, the heart gradually ceased beating (FIG. 2A), although no protein loss from the heart was detected (FIG. 3C). […] The decrease in left ventricular […] pressure (LVDP) and an elevation in end diastolic pressure (EDP), as well as protein loss and blanching signaled the transition to a “stone heart” (Zimmerman, Cardiovasc Res (2000) 45(1):119-121) in hearts from all control animals examined.
# Azaserine (AZA), the inhibitor of GFAT and HBP flux (Marshall, et al., J Biol Chem (1991) 266(8):4706-4712), negated the effects of hyperglycemia, restoring sensitivity to the paradox in 3 of 7 hearts (FIG. 2B). […] This decreased somewhat the protection seen with hyperglycemia, but made the reversal seen with azaserine more pronounced (FIGS. 2B and 3).
# To confirm the involvement of the HBP in the protection due to hyperglycemia, a complementary series of experiments at a final Ca^2+ concentration of 1.25 mM were performed.
# An independent mechanism of increasing metabolites in the HBP is to provide the heart with free fatty acids (Hawkins, et al., J Clin Invest (1997) 99(9):2173-2182). This occurs because of the “glucose-sparing” effect, a rapid block on the entry of glucose into the glycolytic pathway because of an inhibition of phosphofructokinase. […] In addition, SKF96365 (also known as 1-[β-[3-(4-methoxyphenyl)propoxy]-4-methoxyphenethyl]-1H-imidazole, HCl; available from Calbiochem, San Diego, Calif.) as an independent means of blocking the channels responsible for CCE was utilized (Putney, Capacitative Calcium Entry (1997) Austin: Landes Biomedical). This too was at least partially effective in 4 of 6 animals (FIG. 4).
# hemorrhagic shock = details: in vivo; cited from earlier work
# human = details: in vivo; cited from earlier work
# [1] = tested on: animal models of ischemia/reperfusion; details: in vivo; cited from earlier work
structure (smiles),measurement,setting,value
NC(=O)CC[C@H](N)C(=O)O [glutamine],protection in cardiac ischemia,isolated rat heart,remarkable protection
same,protection in isolated cardiomyocyte model,isolated cardiomyocyte,protective
"COc1ccc(CCCOC(Cn2ccnc2)c2ccc(OC)cc2)cc1 (stereo not drawn) [SKF96365, 1-[β-[3-(4-methoxyphenyl)propoxy]-4-methoxyphenethyl]-1H-imidazole, HCl]",animals in which treatment was at least partially effective in the calcium paradox,perfused hearts; final Ca2+ 1.25 mM,4 of 6
CN(N=O)C(=O)N[C@H]1C(O)O[C@H](CO)[C@@H](O)[C@@H]1O (mixture of isomers) [streptozotocin],hearts demonstrating almost complete protection in the calcium paradox,"perfused hearts; hearts from animals made hyperglycemic by STZ treatment (2-5 days), 10 min Ca2+-free, 1.25 mM Ca2+ readdition",7 of 7
[N-]=[N+]=CC(=O)OC[C@H](N)C(=O)O [Azaserine],hearts in which sensitivity to the calcium paradox was restored (effects of hyperglycemia negated),perfused hearts; hearts from STZ hyperglycemic animals treated with azaserine,3 of 7
"O=C(COP(=O)(O)O)[C@@H](O)[C@H](O)[C@H](O)COP(=O)(O)O [FBP, fructose-1,6-bisphosphate]",protection in hemorrhagic shock,hemorrhagic shock,protective
same,outcomes in human studies,human,improved outcomes
same,protection in animal models of ischemia/reperfusion,[1],protective
